# According to PMC7343282, “Tissue Distribution of Several Series of Cationic Surfactants in Rainbow Trout (Oncorhynchus mykiss) Following Exposure via Water” (Environmental Science & Technology, 2020):
# Experiments:
# [1] = tested on: rainbow trout (Oncorhynchus mykiss); test: Contribution of tissues to fish body burden; type: in vivo; settings: for Contribution of Blood to the fish's body burden / Contribution of Gills to the fish's body burden / Contribution of Liver to the fish's body burden / Contribution of Mucus to the fish's body burden / Contribution of Other tissue (all apart from blood, liver, gills and skin; muscle concentration assumed) to body burden / Contribution of Skin to the fish's body burden: fraction; for % contribution to body burden, Gills / % contribution to body burden, Mucus / % contribution to body burden, Liver / % contribution to body burden, Skin / % contribution to body burden, Muscle: mean across fish, Figure 1; for % contribution to body burden, Liver / % contribution to body burden, Skin / % contribution to body burden, Muscle: Q10, Q14 maximum estimates; for % contribution to body burden, Muscle: includes all tissues not specifically analyzed
# [2] = tested on: rainbow trout (Oncorhynchus mykiss); test: Surface area-normalized mucus-water and gill-water distribution coefficients; settings: for Gill-water distribution coefficient (DG-W): from average concentrations in gills and water, calculated gill surface; for Mucus-water distribution coefficient (DMuc-W): from average concentrations in mucus and water
# How it was run: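 Rainbow trout exposed 7 d to mixtures via syringe-pump-dosed aquaria, then sampled. Mucus concentrations normalized to weight-estimated body surface area excluding head; gill–water coefficients from average gill and water concentrations with trout-specific gill surface scaling, unrinsed gills including gill mucus.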
# [3] = Membrane-water partition/distribution coefficient; settings: extrapolated from data of Timmer and Droge (2017)
# [4] = Tissue-blood distribution coefficients and volume of distribution; settings: whole blood, pH 7.5, Estimated volume of distribution Vd, residues in muscle, liver and blood only
# Procedure: Blood is the transport medium for contaminants in fish, and the tissue distribution is governed by tissue–blood distribution coefficients. […] Muscle–blood and liver–blood distribution coefficients (DMus–B and DL–B) were calculated as the quotients of the concentrations in the respective tissues and blood. This approach implies that there was an internal test chemical steady state in the fish.
# The experimental data also allow estimation of the volume of distribution (Vd), an important parameter for extrapolating in vitro measures of e.g. metabolism to in vivo. In the context of quantitative in vitro–in vivo extrapolation for fish, Vd is defined as the quotient of the concentration in fish and the concentration in blood and describes the equivalent volume of blood that would contain the same amount of the chemical as 1 kg of fish.[40]Vd was estimated using the residues that had been clearly taken up systemically (i.e., those in muscle, liver and blood).
compound,measurement,setting,value
"CCCCCCCCCCCCCN(C)C [T13, N,N-dimethyltridecylamine]",Contribution of Blood to the fish's body burden,[1]; Fish #1,0.038
same,Contribution of Gills to the fish's body burden,[1]; Fish #1,0.28
same,Contribution of Liver to the fish's body burden,[1]; Fish #1,0.05
same,Contribution of Mucus to the fish's body burden,[1]; Fish #1,0.11
same,"Contribution of Other tissue (all apart from blood, liver, gills and skin; muscle concentration assumed) to body burden",[1]; Fish #1,0.36
same,Contribution of Skin to the fish's body burden,[1]; Fish #1,0.17
same,Contribution of Blood to the fish's body burden,[1]; Fish #2,0.031
same,Contribution of Gills to the fish's body burden,[1]; Fish #2,0.26
same,Contribution of Liver to the fish's body burden,[1]; Fish #2,0.09
same,Contribution of Mucus to the fish's body burden,[1]; Fish #2,0.09
same,"Contribution of Other tissue (all apart from blood, liver, gills and skin; muscle concentration assumed) to body burden",[1]; Fish #2,0.29
same,Contribution of Skin to the fish's body burden,[1]; Fish #2,0.24
same,Contribution of Blood to the fish's body burden,[1]; Fish #3,0.038
same,Contribution of Liver to the fish's body burden,[1]; Fish #3,0.11
same,Contribution of Mucus to the fish's body burden,[1]; Fish #3,0.07
same,"Contribution of Other tissue (all apart from blood, liver, gills and skin; muscle concentration assumed) to body burden",[1]; Fish #3,0.31
same,Contribution of Skin to the fish's body burden,[1]; Fish #3,0.22
same,Contribution of Blood to the fish's body burden,[1]; Fish #4,0.023
same,Contribution of Gills to the fish's body burden,[1]; Fish #4,0.22
same,Contribution of Liver to the fish's body burden,[1]; Fish #4,0.21
same,Contribution of Mucus to the fish's body burden,[1]; Fish #4,0.07
same,"Contribution of Other tissue (all apart from blood, liver, gills and skin; muscle concentration assumed) to body burden",[1]; Fish #4,0.32
same,Contribution of Skin to the fish's body burden,[1]; Fish #4,0.17
same,Contribution of Blood to the fish's body burden,[1]; Fish #5,0.025
same,Contribution of Gills to the fish's body burden,[1]; Fish #5,0.30
same,Contribution of Liver to the fish's body burden,[1]; Fish #5,0.07
same,Contribution of Mucus to the fish's body burden,[1]; Fish #5,0.09
same,"Contribution of Other tissue (all apart from blood, liver, gills and skin; muscle concentration assumed) to body burden",[1]; Fish #5,0.31
same,Contribution of Skin to the fish's body burden,[1]; Fish #5,0.21
same,Contribution of Blood to the fish's body burden,[1]; Fish #6,0.042
same,Contribution of Gills to the fish's body burden,[1]; Fish #6,0.24
same,Contribution of Liver to the fish's body burden,[1]; Fish #6,0.06
same,Contribution of Mucus to the fish's body burden,[1]; Fish #6,0.11
same,"Contribution of Other tissue (all apart from blood, liver, gills and skin; muscle concentration assumed) to body burden",[1]; Fish #6,0.29
same,Contribution of Skin to the fish's body burden,[1]; Fish #6,0.25
same,Contribution of Blood to the fish's body burden,[1]; Mean,0.033
same,Contribution of Gills to the fish's body burden,[1]; Mean,0.26
same,Contribution of Liver to the fish's body burden,[1]; Mean,0.10
same,Contribution of Mucus to the fish's body burden,[1]; Mean,0.09
same,"Contribution of Other tissue (all apart from blood, liver, gills and skin; muscle concentration assumed) to body burden",[1]; Mean,0.31
same,Contribution of Skin to the fish's body burden,[1]; Mean,0.21
same,"% contribution to body burden, Gills",[1],26%
same,"% contribution to body burden, Mucus",[1],9%
same,"% contribution to body burden, Liver",[1],10%
same,"% contribution to body burden, Skin",[1],21%
same,"% contribution to body burden, Muscle",[1],31%
same,Gill-water distribution coefficient (DG-W),[2],58 mLcm-2
same,Mucus-water distribution coefficient (DMuc-W),[2],22 mL cm-2
same,"Log KMW,C (membrane-water partition coefficient of the charged form), extrapolated",[3],5.88
"CCCCCCCCCCCCCN [P13, tridecylamine]",Contribution of Blood to the fish's body burden,[1]; Fish #1,0.013
same,Contribution of Gills to the fish's body burden,[1]; Fish #1,0.27
same,Contribution of Liver to the fish's body burden,[1]; Fish #1,0.24
same,Contribution of Mucus to the fish's body burden,[1]; Fish #1,0.14
same,"Contribution of Other tissue (all apart from blood, liver, gills and skin; muscle concentration assumed) to body burden",[1]; Fish #1,0.17
same,Contribution of Skin to the fish's body burden,[1]; Fish #1,0.17
same,Contribution of Blood to the fish's body burden,[1]; Fish #2,0.014
same,Contribution of Gills to the fish's body burden,[1]; Fish #2,0.27
same,Contribution of Liver to the fish's body burden,[1]; Fish #2,0.23
same,Contribution of Mucus to the fish's body burden,[1]; Fish #2,0.10
same,"Contribution of Other tissue (all apart from blood, liver, gills and skin; muscle concentration assumed) to body burden",[1]; Fish #2,0.17
same,Contribution of Skin to the fish's body burden,[1]; Fish #2,0.21
same,Contribution of Blood to the fish's body burden,[1]; Fish #3,0.016
same,Contribution of Liver to the fish's body burden,[1]; Fish #3,0.16
same,Contribution of Mucus to the fish's body burden,[1]; Fish #3,0.09
same,"Contribution of Other tissue (all apart from blood, liver, gills and skin; muscle concentration assumed) to body burden",[1]; Fish #3,0.24
same,Contribution of Skin to the fish's body burden,[1]; Fish #3,0.20
same,Contribution of Blood to the fish's body burden,[1]; Fish #4,0.013
same,Contribution of Gills to the fish's body burden,[1]; Fish #4,0.35
same,Contribution of Liver to the fish's body burden,[1]; Fish #4,0.15
same,Contribution of Mucus to the fish's body burden,[1]; Fish #4,0.11
same,"Contribution of Other tissue (all apart from blood, liver, gills and skin; muscle concentration assumed) to body burden",[1]; Fish #4,0.17
same,Contribution of Skin to the fish's body burden,[1]; Fish #4,0.21
same,Contribution of Blood to the fish's body burden,[1]; Fish #5,0.013
same,Contribution of Gills to the fish's body burden,[1]; Fish #5,0.28
same,Contribution of Liver to the fish's body burden,[1]; Fish #5,0.23
same,Contribution of Mucus to the fish's body burden,[1]; Fish #5,0.09
same,"Contribution of Other tissue (all apart from blood, liver, gills and skin; muscle concentration assumed) to body burden",[1]; Fish #5,0.17
same,Contribution of Skin to the fish's body burden,[1]; Fish #5,0.23
same,Contribution of Blood to the fish's body burden,[1]; Fish #6,0.013
same,Contribution of Gills to the fish's body burden,[1]; Fish #6,0.26
same,Contribution of Liver to the fish's body burden,[1]; Fish #6,0.27
same,Contribution of Mucus to the fish's body burden,[1]; Fish #6,0.09
same,"Contribution of Other tissue (all apart from blood, liver, gills and skin; muscle concentration assumed) to body burden",[1]; Fish #6,0.17
same,Contribution of Skin to the fish's body burden,[1]; Fish #6,0.20
same,Contribution of Blood to the fish's body burden,[1]; Mean,0.014
same,Contribution of Gills to the fish's body burden,[1]; Mean,0.28
same,Contribution of Liver to the fish's body burden,[1]; Mean,0.21
same,Contribution of Mucus to the fish's body burden,[1]; Mean,0.10
same,"Contribution of Other tissue (all apart from blood, liver, gills and skin; muscle concentration assumed) to body burden",[1]; Mean,0.18
same,Contribution of Skin to the fish's body burden,[1]; Mean,0.20
same,"% contribution to body burden, Gills",[1],28%
same,"% contribution to body burden, Mucus",[1],10%
same,"% contribution to body burden, Liver",[1],21%
same,"% contribution to body burden, Skin",[1],20%
same,"% contribution to body burden, Muscle",[1],18%
same,Gill-water distribution coefficient (DG-W),[2],62 mLcm-2
same,Mucus-water distribution coefficient (DMuc-W),[2],25 mL cm-2
same,Vd at 7 d,"[4]; rainbow trout (Oncorhynchus mykiss), other: exposure via water, Mean",1.49 L/kg
same,Vd at 7 d,[4]; exposed fish #1,1.59 L/kg
same,Vd at 7 d,[4]; exposed fish #2,1.44 L/kg
same,Vd at 7 d,[4]; exposed fish #3,1.28 L/kg
same,Vd at 7 d,[4]; exposed fish #4,1.33 L/kg
same,Vd at 7 d,[4]; exposed fish #5,1.54 L/kg
same,Vd at 7 d,[4]; exposed fish #6,1.77 L/kg
same,"Log KMW,C (membrane-water partition coefficient of the charged form), extrapolated",[3],6.16
